Measurements from patent publication US12042547B2, “Method for producing luminescent particles, luminescent particles, and bioimaging material” (KYULUX, INC., priority 2018, dated 2024).

Assay: Evaluation of luminescence properties (emission maximum, PL quantum yield, emission lifetime)
Type: physicochemical
Details: toluene solution 1.0×10^−5 mol/L, 340-nm excitation
Protocol: The following examples illustrate the present invention in greater detail. It is to be understood that changes may be made to the below-described materials, processing manner, processing procedure, etc. without departing from the scope of the present invention. Thus, the present invention should not be construed as limited to the following examples. An evaluation of luminescence properties was performed by using an optical spectroscope (PMA-12, manufactured by Hamamatsu Photonics K.K.), and an observation of the shape of particles was performed by using a scanning electron microscope (Inspect S, manufactured by FEI). The average diameter and the polydispersion index of luminescent particles were determined by cumulant analysis using a dynamic light scattering measurement device (DLS-8000DL, manufactured by Otsuka Electronics Co., Ltd.).
The example particles 1, the example particles 2 and the comparative particles 1 were separately dispersed in water to prepare three aqueous dispersions (0.05 μg/L). For each of the aqueous dispersions and a toluene solution of 4CzIPN (1.0×10^−5 mol/L), the emission maximum wavelength, the PL quantum yield (photoluminescence quantum yield) and the emission lifetime τ1, τ2 were measured using 340-nm excitation light.
The resulting luminescent particles contained particles having a maximum diameter of less than 1000 nm. The resulting luminescent particles were dispersed in water to prepare an aqueous dispersion (0.05 μg/L). The aqueous dispersion was subjected to measurement of the emission spectrum with 340-nm excitation light. […] The full width at half maximum (FWHM) was as narrow as 29 nm.

- Emission lifetime τ1 (after nitrogen bubbling): 16 ns
- Emission lifetime τ2 (after nitrogen bubbling): 4.71 μs
- Emission maximum wavelength (after nitrogen bubbling): 505 nm
- PL quantum Yield (after nitrogen bubbling): 83%
- Emission lifetime τ1 (before nitrogen bubbling): 11 ns
- Emission lifetime τ2 (before nitrogen bubbling): 0.31 μs
- Emission maximum wavelength (before nitrogen bubbling): 505 nm
- PL quantum Yield (before nitrogen bubbling): 21%
Structure (SMILES): N#Cc1c(-n2c3ccccc3c3ccccc32)c(C#N)c(-n2c3ccccc3c3ccccc32)c(-n2c3ccccc3c3ccccc32)c1-n1c2ccccc2c2ccccc21 [4CzIPN]
